{"source": "patent US7771727B2", "about": "“Conjugates of therapeutic or cytotoxic agents and biologically active peptides” (The Administrators of the Tulane Educational Fund, priority 2002, dated 2010)", "key": {"[1]": {"tested_on": "tumor", "experiment": "Preliminary tumor bearing animal studies", "assay_type": "in vivo", "conditions": "repeated intraperitoneal administration"}, "[2]": {"tested_on": "GH release from monolayer cultures of rat pituitary cells", "assay_type": "cell-based", "conditions": "read-out: Growth Hormone Inhibition IC50"}, "[3]": {"experiment": "in vitro", "procedure": "(§1) Each peptide conjugate was subjected to phosphate buffer and rat serum stability studies. The analogues were incubated in either 0.1 M phosphate buffer or fresh rat serum at 37° C. and aliquots were taken at different time points and examined by HPLC."}, "[4]": {"experiment": "physchem", "conditions": "for Half Life Phosphate Buffer / half-life: buffer", "procedure": "as §1"}, "[5]": {"tested_on": "human neuroblastoma IMR32 cells (somatostatin receptor overexpression)", "experiment": "MTT cytotoxicity assay, IMR-32 cells", "conditions": "for cytotoxic activity: 3 days", "procedure": "The cytotoxic activities of these conjugates were measured using a standard MTT assay kit (Promega Corporation, Madison, Wis.). Each compound was incubated for 3 days with human neuroblastoma IMR32 cells (somatostatin receptor overexpression) at different concentrations in quadruplate and IC50's were generated from the dose-response curves (FIG. 2)."}, "[6]": {"conditions": "camptothecin: tertiary hydroxyl, ring position 20; combretastatin: phenolic hydroxyl; cited from earlier work"}, "[7]": {"tested_on": "NCI-H69 small cell lung carcinomas (expression of SSTR2)", "conditions": "nude mice; doses far below the maximum tolerated equivalent doses of camptothecin alone"}, "[8]": {"conditions": "phosphate buffer, length of the experiment 50 h"}, "[9]": {"conditions": "Homo sapiens, IMR-32, 72 h, read-out: Cytotoxicity IC50, IMR-32 Cells"}}, "note": "Entries after “also recorded” stand apart in the source; their conditions may differ. Like-named read-outs stand apart in the source and are kept apart here. Numbered stars: 1 amine (or outer) side, 2 acyl side, 3 side chain; on linkers, the order of the positions; unused ones are H or OH. Bridge positions count the residues as written; N and C are the ends. Square brackets hold non-standard residues; d marks the D form. Peptide text beside a SMILES is read from it. * marks the point of attachment. Camptothecin(20S-OCO) = CC[C@@]1(OC(=O)*)C(=O)OCc2c1cc1n(c2=O)Cc2cc3ccccc3nc2-1; NGly(2-(methylamino)ethyl) = CN(CCN(CC(=O)[*:2])[*:1])[*:3]; X1 = COc1ccc(/C=C\\c2cc(OC)c(OC)c(OC)c2)cc1OC(=O)*; Gly(N-2-aminoethyl) = NCCNCC(=O)O; X2 = CN(C)CCN(CC(=O)[*:2])[*:1]; Gly(N(CH2)3NH2) = NCCCNCC(=O)O; Gly(N-CH2CH2OH) = O=C(O)CNCCO; Nle = CCCC[C@H](N)C(=O)O"}
{"molecule": "CCCC[C@H](NC(=O)[C@@H](CO)NC(=O)CN(CCN)C(=O)O[C@]1(CC)C(=O)OCc2c1cc1n(c2=O)Cc2cc3ccccc3nc2-1)C(=O)N[C@H](Cc1ccc(O)cc1)C(=O)N[C@H](CO)C(=O)N[C@H]1CSSC[C@@H](C(=O)N[C@H](C(N)=O)[C@@H](C)O)NC(=O)[C@H]([C@@H](C)O)NC(=O)[C@H](CCCCN)NC(=O)[C@@H](Cc2c[nH]c3ccccc23)NC(=O)[C@H](Cc2ccccc2)NC1=O", "note": "[Compound 1, camptothecin-carbonyl-N-(2-aminoethyl)-glycine-D-Ser-Nle-D-Tyr-D-Ser-cyclo[Cys-Phe-D-Trp-Lys-Thr-Cys]-Thr-amide] ({Camptothecin(20S-OCO)}-[Gly(N-2-aminoethyl)][dS][Nle][dY][dS]CF[dW]KTCT-NH2; disulfide 6-11)", "values": [{"measurement": "cytotoxic effect in the tumor", "setting": "[1]", "value": "equally effective"}, {"measurement": "IC50", "setting": "[2]; rat pituitary cells", "value": "0.32 ± 0.02", "unit": "nM"}, {"measurement": "half-life", "setting": "[3]; rat, serum", "value": 106, "unit": "h"}, {"measurement": "rat serum stability", "setting": "[3]; rat, serum", "value": "most stable"}, {"measurement": "buffer stability", "setting": "[4]; [8]", "value": "complete buffer stability"}, {"measurement": "cytotoxic potency relative to compound 2", "setting": "[5]; IMR32 cells", "value": "seven times less potent than compound 2"}, {"measurement": "cytotoxic activity", "setting": "[5]; IMR32 cells", "value": "next most potent; also recorded: high cytotoxicity"}, {"measurement": "stability to cell media incubation conditions", "setting": "[5]; cell media", "value": "very stable"}, {"measurement": "IC50", "setting": "[5]; human", "value": "374 ± 18", "unit": "nM"}]}
{"molecule": "CC[C@@]1(O)C(=O)OCc2c1cc1n(c2=O)Cc2cc3ccccc3nc2-1", "note": "[Camptothecin, reference compound]", "values": [{"measurement": "pKa of hydroxyl group", "setting": "[6]", "value": "approximately 18"}, {"measurement": "IC50", "setting": "[5]; [9]", "value": "2.21 ± 0.44", "unit": "nM"}]}
{"molecule": "CCCC[C@H](NC(=O)[C@@H](CO)NC(=O)CN(CCO)C(=O)O[C@]1(CC)C(=O)OCc2c1cc1n(c2=O)Cc2cc3ccccc3nc2-1)C(=O)N[C@H](Cc1ccc(O)cc1)C(=O)N[C@H](CO)C(=O)N[C@H]1CSSC[C@@H](C(=O)N[C@H](C(N)=O)[C@@H](C)O)NC(=O)[C@H]([C@@H](C)O)NC(=O)[C@H](CCCCN)NC(=O)[C@@H](Cc2c[nH]c3ccccc23)NC(=O)[C@H](Cc2ccccc2)NC1=O", "note": "[Compound 5] ({Camptothecin(20S-OCO)}-[Gly(N-CH2CH2OH)][dS][Nle][dY][dS]CF[dW]KTCT-NH2; disulfide 6-11)", "values": [{"measurement": "IC50", "setting": "[2]", "value": "0.49 ± 0.1", "unit": "nM"}, {"measurement": "IC50", "setting": "[5]; human", "value": "> 1000", "unit": "nM"}]}
{"molecule": "CCCC[C@H](NC(=O)[C@@H](CO)NC(=O)CN(CCNC)C(=O)O[C@]1(CC)C(=O)OCc2c1cc1n(c2=O)Cc2cc3ccccc3nc2-1)C(=O)N[C@H](Cc1ccc(O)cc1)C(=O)N[C@H](CO)C(=O)N[C@H]1CSSC[C@@H](C(=O)N[C@H](C(N)=O)[C@@H](C)O)NC(=O)[C@H]([C@@H](C)O)NC(=O)[C@H](CCCCN)NC(=O)[C@@H](Cc2c[nH]c3ccccc23)NC(=O)[C@H](Cc2ccccc2)NC1=O", "note": "[Compound 2, camptothecin-carbonyl-N-(N-methyl-2-aminoethyl)-glycine-D-Ser-Nle-D-Tyr-D-Ser-cyclo[Cys-Phe-D-Trp-Lys-Thr-Cys]-Thr-amide] ({Camptothecin(20S-OCO)}-[NGly(2-(methylamino)ethyl)][dS][Nle][dY][dS]CF[dW]KTCT-NH2; disulfide 6-11)", "values": [{"measurement": "cytotoxic effect in the tumor", "setting": "[1]", "value": "equally effective"}, {"measurement": "IC50", "setting": "[2]", "value": "0.27 ± 0.02", "unit": "nM"}, {"measurement": "Half-Life Rat Serum", "setting": "[3]; rat, serum", "value": 18, "unit": "h"}, {"measurement": "half-life", "setting": "[3]; rat, serum", "value": 18, "unit": "h"}, {"measurement": "Half Life Phosphate Buffer", "setting": "[4]", "value": 123, "unit": "h"}, {"measurement": "half-life", "setting": "[4]", "value": "~120", "unit": "h"}, {"measurement": "growth of transplanted NCI-H69 small cell lung carcinomas", "setting": "[7]", "value": "significantly stabilize the growth"}, {"measurement": "stability to cell media incubation conditions", "setting": "[5]", "value": "very stable"}, {"measurement": "IC50", "setting": "[5]; human", "value": "54.2 ± 6", "unit": "nM"}]}
{"molecule": "CCCC[C@H](NC(=O)[C@@H](CO)NC(=O)CN(CCN)C(=O)Oc1cc(/C=C\\c2cc(OC)c(OC)c(OC)c2)ccc1OC)C(=O)N[C@H](Cc1ccc(O)cc1)C(=O)N[C@H](CO)C(=O)N[C@H]1CSSC[C@@H](C(=O)N[C@H](C(N)=O)[C@@H](C)O)NC(=O)[C@H]([C@@H](C)O)NC(=O)[C@H](CCCCN)NC(=O)[C@@H](Cc2c[nH]c3ccccc23)NC(=O)[C@H](Cc2ccccc2)NC1=O", "note": "[Compound 6, combretastatin-carbonyl-N-(2-aminoethyl)-glycine-D-Ser-Me-D-Tyr-D-Ser-cyclo[Cys-Phe-D-Trp-Lys-Thr-Cys]-Thr-amide] (X1-[Gly(N-2-aminoethyl)][dS][Nle][dY][dS]CF[dW]KTCT-NH2; disulfide 6-11)", "values": [{"measurement": "IC50", "setting": "[2]; rat pituitary cells", "value": "0.31 ± 0.1", "unit": "nM"}, {"measurement": "Half-Life Rat Serum", "setting": "[3]; fresh rat serum, 37° C.", "value": 4, "unit": "h"}, {"measurement": "half-life", "setting": "[3]; rat, serum", "value": 4, "unit": "h"}, {"measurement": "half-life", "setting": "[4]", "value": 30, "unit": "h"}, {"measurement": "conjugate that is free cytotoxin after 3 days", "setting": "[4]; from stability data in buffer, after 3 days", "value": 50, "unit": "%"}, {"measurement": "cytotoxic activity", "setting": "[5]; IMR32 cells", "value": "most cytotoxic"}, {"measurement": "IC50", "setting": "[5]; read-out: Cytotoxicity IC50, IMR-32 Cells, 3 days incubation, MTT assay", "value": "2.79 ± 0.33", "unit": "nM"}]}
{"molecule": "COc1ccc(C[C@@H](O)c2cc(OC)c(OC)c(OC)c2)cc1O", "note": "[Combretastatin, reference compound]", "values": [{"measurement": "pKa of hydroxyl group", "setting": "[6]", "value": "approximately 10.3"}, {"measurement": "IC50", "setting": "[5]; [9]", "value": 4.36, "unit": "nM"}]}
{"molecule": "CCCC[C@H](NC(=O)[C@@H](CO)NC(=O)CN(CCN(C)C)C(=O)O[C@]1(CC)C(=O)OCc2c1cc1n(c2=O)Cc2cc3ccccc3nc2-1)C(=O)N[C@H](Cc1ccc(O)cc1)C(=O)N[C@H](CO)C(=O)N[C@H]1CSSC[C@@H](C(=O)N[C@H](C(N)=O)[C@@H](C)O)NC(=O)[C@H]([C@@H](C)O)NC(=O)[C@H](CCCCN)NC(=O)[C@@H](Cc2c[nH]c3ccccc23)NC(=O)[C@H](Cc2ccccc2)NC1=O", "note": "[Compound 3] ({Camptothecin(20S-OCO)}-[X2][dS][Nle][dY][dS]CF[dW]KTCT-NH2; disulfide 6-11)", "values": [{"measurement": "IC50", "setting": "[2]", "value": "0.3 ± 0.04", "unit": "nM"}, {"measurement": "rat serum stability", "setting": "[3]", "value": "most stable"}, {"measurement": "half-life", "setting": "[3]; rat, serum", "value": 59, "unit": "h"}, {"measurement": "buffer stability", "setting": "[4]", "value": "complete buffer stability"}, {"measurement": "Half Life Phosphate Buffer", "setting": "[4]", "value": "Stable"}, {"measurement": "IC50", "setting": "[5]; human", "value": "571 ± 48", "unit": "nM"}]}
{"molecule": "CCCC[C@H](NC(=O)[C@@H](CO)NC(=O)CN(CCCN)C(=O)O[C@]1(CC)C(=O)OCc2c1cc1n(c2=O)Cc2cc3ccccc3nc2-1)C(=O)N[C@H](Cc1ccc(O)cc1)C(=O)N[C@H](CO)C(=O)N[C@H]1CSSC[C@@H](C(=O)N[C@H](C(N)=O)[C@@H](C)O)NC(=O)[C@H]([C@@H](C)O)NC(=O)[C@H](CCCCN)NC(=O)[C@@H](Cc2c[nH]c3ccccc23)NC(=O)[C@H](Cc2ccccc2)NC1=O", "note": "[Compound 4] ({Camptothecin(20S-OCO)}-[Gly(N(CH2)3NH2)][dS][Nle][dY][dS]CF[dW]KTCT-NH2; disulfide 6-11)", "values": [{"measurement": "IC50", "setting": "[2]; rat pituitary cells", "value": "0.26 ± 0.03", "unit": "nM"}, {"measurement": "half-life", "setting": "[3]; rat, serum", "value": 72, "unit": "h"}, {"measurement": "rat serum stability", "setting": "[3]; rat, serum", "value": "most stable"}, {"measurement": "buffer stability", "setting": "[4]; [8]", "value": "complete buffer stability"}, {"measurement": "IC50", "setting": "[5]; human", "value": "> 1000", "unit": "nM"}]}
